Tests used:
Hep G2 cells [1] = assay: Triglyceride biosynthesis inhibitory activity (14C-acetic acid incorporation into triglyceride); assay type: cell-based; conditions: Homo sapiens, HepG2, test compound 1 μM
Protocol: Test 1: Triglyceride Biosynthesis Inhibitory Activity
The triglyceride biosynthesis inhibitory activity of compounds according to the present invention was examined using human hepatoma-derived cell line, Hep G2.
The test was carried out by partially modifying the method of Nagata et al. (Biochem. Pharmacol., 40, 843 (1990)) and the method of Furukawa et al. (J. Biol. Chem., 267, 22630 (1992)). Specifically, Hep G2 cells were cultivated in a Dulbecco modified Eagles's medium (DMEM) containing 10% fetal calf serum (FCS), 100 units/ml penicillin, and 100 μg/ml streptomycin on a 96-well plate. Thereafter, the medium was replaced by DMEM containing 1% bovine serum albumin. At the same time, the test compound was added to a final concentration of 1 μM, followed by cultivation, or cultivation was carried out without the addition of the test compound. Three hours after the replacement of the medium, ^14C-acetic acid was added to a final concentration of 1 mM, and cultivation was continued for additional 4 hours. After the cells were washed with a phosphate buffer (pH 7.5) containing 150 mM sodium chloride, lipids within the cells were extracted with n-butanol. After the extraction, the extract was evaporated to dryness under a nitrogen stream. The solid obtained by the evaporation to dryness was dissolved in a minor amount of chloroform. The solution was developed by thin layer chromatography (development solvent: petroleum ether/diethyl ether/acetic acid=90/15/3) to separate a ^14C-triglyceride fraction, and the amount of ^14C-triglyceride produced was then determined with a liquid scintillation counter (Beckman, LS-6500).
The inhibition (%) of biosynthesis of triglyceride was calculated by the following equation.
Inhibition of biosynthesis of triglyceride (%)={1−(amount of ^14C-triglyceride produced in the presence of test compound)/(amount of ^14C-triglyceride produced in the absence of test compound)}×100

Hep G2 cells [2] = assay: Apolipoprotein B secretion inhibitory activity (sandwich ELISA of culture supernatant); assay type: cell-based; conditions: Homo sapiens, HepG2, test compound 1 μM
Protocol: Test 2: Apolipoprotein B Secretion Inhibitory Activity
The apolipoprotein B secretion inhibitory activity of compounds according to the present invention was examined using human hepatoma-derived cell line, Hep G2.
The test was carried out by partially modifying the method of Nagata et al. (Biochem. Pharmacol., 40, 843 (1990)) and the method of Furukawa et al. (J. Biol. Chem., 267, 22630 (1992)). Specifically, Hep G2 cells were cultivated in a Dulbecco modified Eagles's medium (DMEM) containing 10% fetal calf serum (FCS), 100 units/ml penicillin, and 100 μg/ml streptomycin on a 96-well plate. Thereafter, the medium was replaced by DMEM containing 1% bovine serum albumin. At the same time, the test compound was added to a final concentration of 1 μM, followed by cultivation, or cultivation was carried out without the addition of the test compound. Three hours after the replacement of the medium, acetic acid was added to a final concentration of 1 mM, and cultivation was continued for additional 4 hours. The amount of apolipoprotein B secreted in the supernatant of the culture thus obtained was determined by the sandwich ELISA method. Goat anti-human apolipoprotein B polyclonal antibody (CHEMICON) was used as the primary antibody, and mouse anti-human apolipoprotein B monoclonal antibody peroxydase conjugate (BIOSYS) was used as the secondary antibody.
The inhibition (%) of secretion of apolipoprotein B was calculated by the following equation.
Inhibition (%) of secretion of apolipoprotein B={1−(amount of apolipoprotein B secreted in the presence of test compound)/(amount of apolipoprotein B secreted in the absence of test compound)}×100

wistar rats (male) = assay: Acute toxicity test in rats; assay type: in vivo; conditions: orally administered 200 mg/kg, observed for 8 days
Protocol: (§1) Test 3: Acute Toxicity Test
(§2) For the compound prepared in Example 104, an acute toxicity test was carried out using mice and rats according to a conventional method.

ddY mice (male) = assay: Acute toxicity test in mice; assay type: in vivo; conditions: orally administered 200 mg/kg, observed for 8 days
Protocol: as §1, §2

SMILES	inhibition at 1 µM (Hep G2 cells [1])	inhibition at 1 µM (Hep G2 cells [2])	Change in general conditions, such as weight, in acute toxicity test (wistar rats (male))	Survival in acute toxicity test (wistar rats (male))	Change in general conditions, such as weight, in acute toxicity test (ddY mice (male))	Survival in acute toxicity test (ddY mice (male))
CC(C)N(C(=O)c1cccc(N2CCN(CCC(c3ccccc3)c3ccccc3)CC2)c1)C(C)C [Example 5, N,N-Diisopropyl-3-[4-(3,3-diphenyl-1-propyl)piperazin-1-yl]benzamide]	8%	92%				
O=C1c2cc(N3CCN(CCCCC4(C(=O)NCC(F)(F)F)c5ccccc5-c5ccccc54)CC3)ccc2CCN1CC1CCCCO1 (centres unmarked) [Example 99, 2-(Tetrahydropyran-2-yl)methyl-7-[4-[4-[9-(2,2,2-trifluoroethylcarbamoyl)-9H-fluoren-9-yl]butyl]piperazin-1-yl]-3,4-dihydro-2H-isoquinolin-1-one]	11%	≥ 80%				
C=CCN(CC(F)(F)F)C(=O)C1(CCCCN2CCN(c3ccc4c(c3)C(=O)N(Cc3ccccc3)CC4)CC2)c2ccccc2-c2ccccc21 [Example 102, 7-[4-[4-[9-[Allyl-(2,2,2-trifluoroethyl)carbamoyl]-9H-fluoren-9-yl]butyl]piperazin-1-yl]-2-benzyl-3,4-dihydro-2H-isoquinolin-1-one]	89%	80%				
O=C1c2cc(N3CCN(CCC(c4ccccc4)c4ccccc4)CC3)ncc2CCN1Cc1ccccc1 [Example 104, 2-Benzyl-7-[4-(3,3-diphenyl-1-propyl)piperazin-1-yl]-3,4-dihydro-2H-2,6-naphthyridin-1-one]	83%	84%	any change in general conditions, such as a change in weight, did not occur	all the animals survived	any change in general conditions, such as a change in weight, did not occur	all the animals survived
O=c1c2cc(N3CCN(CCC(c4ccccc4)c4ccccc4)CC3)ccc2cnn1Cc1ccccc1 [Example 149, 2-Benzyl-7-[4-(3,3-diphenylpropyl)piperazin-1-yl]-2H-phthalazin-1-one]	74%	70%				
